In patent publication US20150140121A1, “Compositions and Methods for Tight Junction Modulation” (Lankenau Institute for Medical Research, priority 2012, published 2015):
Where two headings read alike, the source gives them in different places.

Experiments:
[1] = test system: mammary epithelial barrier; conditions: selenium at supplemental concentration (e.g., 100 ng/ml); Martin et al. 2007; cited from earlier work
[2] = test system: mammary epithelial barrier; conditions: selenium (e.g., 100 ng/ml), Martin et al. 2007; cited from earlier work
[3] = test system: ZO-1; conditions: selenium (e.g., 100 ng/ml); Martin et al. 2007; cited from earlier work
[4] = test system: occludin; conditions: selenium (e.g., 100 ng/ml); Martin et al. 2007; cited from earlier work
[5] = test system: LLC-PK1 cell layers; experiment: Transepithelial electrical resistance (Rt) across LLC-PK1 cell layers; assay type: cell-based, porcine; conditions: LLC-PK1 cell layers
Method: (§1) LLC-PK1 is a porcine cell line model of the kidney proximal tubule.
The effect of zinc and/or quercetin on the electrical resistance across LLC-PK1 renal epithelial cell layers was tested. Briefly, LLC-PK1 renal epithelial cell layers were treated with either 100 μM zinc alone, 400 μM quercetin alone; or both agents together. The stimulation of transepithelial electrical resistance (Rt) by maximally effective concentrations of zinc alone and quercetin alone was in the range of 50-60% of control levels. […] The results shown in FIG. 8 represent the mean+/− standard error for 12 cell layers. P values are for one-sided Student's t tests.

[6] = test system: LLC-PK1 cell layers; experiment: Mannitol flux / leak across LLC-PK1 cell layers; assay type: cell-based, porcine; conditions: LLC-PK1 cell layers
Method: FIG. 7A provides a graph of transepithelial resistance of untreated (control) LLC-PK1 cell layers or LLC-PK1 cell layers treated with 50 μM, 100 μM, or 200 μM zinc. FIG. 7B provides a graph of ^14C-D-mannitol leak across untreated (control) LLC-PK1 cell layers or LLC-PK1 cell layers treated with 50 μM, 100 μM, or 200 μM zinc.
as §1

[7] = test system: Tricellulin; experiment: Tricellulin expression in LLC-PK1 cell layers (Western immunoblot); assay type: cell-based, porcine; conditions: 400 μM Quercetin; LLC-PK1 cell layers; given as Decr (decrease)
Text: (§2) Zinc has long been known to be efficacious in the treatment of certain types of diarrhea. It has been determined that zinc can render certain TJ barriers less leaky. Zinc effects can vary depending upon the specific type of epithelial layer.

[8] = test system: Claudin-2; experiment: Claudin-2 expression in LLC-PK1 cell layers (Western immunoblot); assay type: cell-based, porcine
Text: as §2

[9] = test system: Claudin-3; experiment: Claudin-3 expression in LLC-PK1 cell layers (Western immunoblot); assay type: cell-based, porcine; conditions: 400 μM Quercetin; LLC-PK1 cell layers; given as Decr (decrease)
Text: as §2

[10] = test system: Claudin-4; experiment: Claudin-4 expression in LLC-PK1 cell layers (Western immunoblot); assay type: cell-based, porcine; conditions: 400 μM Quercetin; LLC-PK1 cell layers; given as Incr (increase)
Text: as §2

[11] = test system: Claudin-5; experiment: Claudin-5 expression in LLC-PK1 cell layers (Western immunoblot); assay type: cell-based, porcine
Text: as §2

[12] = test system: Claudin-7; experiment: Claudin-7 expression in LLC-PK1 cell layers; assay type: cell-based, porcine; conditions: 400 μM Quercetin; LLC-PK1 cell layers; given as Incr (increase)
[13] = test system: human colonic (CACO-2) epithelial cell layer; conditions: cited from earlier work
[14] = test system: human colonic (CACO-2) epithelial cell layer; conditions: cited from earlier work; remark: listed apart in the source
[15] = test system: occludin; conditions: cited from earlier work
[16] = test system: claudin-1; conditions: cited from earlier work
[17] = test system: claudin 3; conditions: quercetin 0.2 mM; CACO-2; Amasheh et al. 2008; cited from earlier work
[18] = test system: claudin-4; conditions: cited from earlier work
[19] = test system: claudin 7; conditions: quercetin 0.2 mM; CACO-2; Amasheh et al. 2008; cited from earlier work
[20] = test system: ZO-2; conditions: quercetin; independent study, Suzuki et al. 2009; cited from earlier work
[21] = test system: colonic (CACO-2) epithelial cell layers; conditions: quercetin treatment; Suzuki et al. 2009; cited from earlier work
[22] = test system: TJ; conditions: glutamine; Seth et al. 2004; cited from earlier work
[23] = quercetin 0.2 mM, CACO-2, Amasheh et al. 2008
[24] = quercetin, independent study, Suzuki et al. 2009
[25] = glutamine, CACO-2 epithelial cell layers, Li et al. 2009

## [Se] [Selenium]
[1]
  Rt: increased
[2]
  paracellular invasion of cancer cells: decreased
[3]
  cellular redistribution of ZO-1 from cytosolic to junctional regions: cellular redistribution
[4]
  cellular redistribution of occludin from cytosolic to junctional regions: cellular redistribution

## O=c1c(O)c(-c2ccc(O)c(O)c2)oc2cc(O)cc(O)c12 [quercetin]
[5]; 400 μM Quercetin, given as Incr (increase)
  transepithelial resistance: Incr > 20%
[5]; quercetin (100, 200, 400 μM, FIG. 4A)
  transepithelial resistance: increased
[6]; 400 μM Quercetin, given as Decr (decrease)
  Mannitol Flux: Decr > 20%
[6]; quercetin (100, 200, 400 μM, FIG. 4B)
  mannitol leaking across the cell layer: decrease
[7]
  Tricellulin: Decr 15%
[8]; 400 μM Quercetin, LLC-PK1 cell layers, given as Decr (decrease)
  Claudin-2: Decr 75%
[8]; 400 μM quercetin, LLC-PK1 cells, FIG. 3A
  expression of Claudin 2: downregulated
[9]
  Claudin-3: Decr 30%
[10]
  Claudin-4: Incr 75%
[11]; 400 μM Quercetin, LLC-PK1 cell layers, given as Incr (increase)
  Claudin-5: Incr 100%
[11]; 400 μM quercetin, LLC-PK1 cells, FIG. 3B
  expression of Claudin 5: upregulated
[12]
  Claudin-7: Incr 200%
[13]; [23]
  TJ permeability to Na+ and Cl− ions: decreased
[13]; quercetin 0.2 mM, colonic (CACO-2) epithelial cell layers, Amasheh et al. 2008
  Rt: increased
[14]; [23]
  TJ permeability to the nonelectrolyte D-mannitol: no significant effect
[15]; [23]
  amount of occludin: unaffected
[15]; [24]
  cellular redistribution of occludin: cellular redistribution
[16]; [23]
  amount of claudin 1: unaffected
[16]; [24]
  cellular redistribution of claudin-1: cellular redistribution
[17]
  amount of claudin 3: unaffected
[18]; [23]
  TJ content of claudin-4: dramatic increase
[18]; [24]
  increase in claudin-4: confirmed
[19]
  amount of claudin 7: unaffected
[20]
  cellular redistribution of ZO-2: cellular redistribution
[21]
  permeability of the electrically charged dye Lucifer yellow: decreased

## NC(=O)CC[C@H](N)C(=O)O [glutamine]
[13]; [25]
  Rt: increased
[14]; [25]
  mannitol diffusion: decreased
[16]; [25]
  claudin-1 expression: increasing
[22]
  toxicity-related increases in TJ leakiness: reverse
